Test results: US8158809B2 (priority 2003, dated 2012)

System: HCT116
Assay: Cell colony formation assay
Format: cell-based
Settings: 72 hours with drug, colonies counted after 7 days
Procedure: This example provides directions for growing cells and testing compounds of the invention for their effect on the growth of the cells. All cells were purchased from DCTDC Tumor Repository, NCI, NIH.
The cells were incubated in a CO2 incubator at 37° C. for 5 hours for attachment to the bottom of Petri dishes. Drugs were made fresh in medium at ten times the final concentration, and then 0.3 ml of this stock solution was added to the 2.7 ml of medium in the dish. The cells were then incubated with drugs for 72 hours at 37° C. At the end of the incubation the drug-containing media were decanted, the dishes were rinsed with 4 ml of Hank's Balance Salt Solution (HBSS), 5 ml of fresh medium was added, and the dishes were returned to the incubator for colony formation. The cell colonies were counted using colony counter after incubation for 7 days for HCT116 cells and PC-3 cells and 8 days for VM46 cells, respectively. Cell survival (%) was calculated, as shown in Table I below for HCT 116 cells.

SMILES | In Vitro Efficacy: Survival (%) of HCT116 (10 nM) | In Vitro Efficacy: Survival (%) of HCT116 (100 nM) | In Vitro Efficacy: Survival (%) of HCT116 (1000 nM) | In Vitro Efficacy: Survival (%) of HCT116 (1 nM)
COc1cc([C@@H]2c3cc4c(cc3[C@@H](O[C@@H]3O[C@@H]5CO[C@@H](C)O[C@H]5[C@H](O)[C@H]3O)[C@H]3COC(=O)[C@H]23)OCO4)cc(OC)c1O [Etoposide, reference compound] | 100% |  |  | 
COc1cc(C2c3cc4c(cc3C(OC(=O)COc3cccc(Cl)c3)C3COC(=O)C23)OCO4)cc(OC)c1OC (stereo not shown) [Compound 000622, Podophyllotoxin-4-O-ester of 3-chlorophenoxyacetic acid] | 98.48% | 0% | 0% | 
COc1cc(C2c3cc4c(cc3C(OC(=O)COC3CC(C)CCC3C(C)C)C3COC(=O)C23)OCO4)cc(OC)c1OC (stereo not drawn) [Compound 000218, Podophyllotoxin-4-O-ester of (+)-menthoxyethanoic acid] |  | 44.28% | 0% | 
COc1cc(C2c3cc4c(cc3C(OC(=O)CCCc3ccc(N(CCCl)CCCl)cc3)C3COC(=O)C23)OCO4)cc(OC)c1OC (stereo not shown) [Compound 0003132, Podophyllotoxin-4-O-ester of 4-(4-dichloroethylamino) phenylbutyric acid] |  | 97.65% | 0% | 
COc1cc([C@@H]2c3cc4c(cc3[C@H](OC(=O)c3cncc(C(=O)O[C@H]5c6cc7c(cc6[C@@H](c6cc(OC)c(OC)c(OC)c6)[C@H]6C(=O)OC[C@@H]65)OCO7)c3)[C@H]3COC(=O)[C@H]23)OCO4)cc(OC)c1OC [Compound 000330, Bis(Podophyllotoxin-4-O-ester) of 3,5-Pyridinedicarboxylic acid] | 100% | 0% | 0% | 
COc1cc([C@@H]2c3cc4c(cc3[C@H](OC(=O)COc3ccc(Br)cc3)[C@H]3COC(=O)[C@H]23)OCO4)cc(OC)c1OC [Compound 000320, Podophyllotoxin-4-O-ester of 4-bromophenoxyacetic acid] | 100% | 0% | 0% | 
COc1ccc(OCC(=O)OC2c3cc4c(cc3C(c3cc(OC)c(OC)c(OC)c3)C3C(=O)OCC23)OCO4)cc1 (stereo not shown) [Compound 000329, Podophyllotoxin-4-O-ester of 4-methoxyphenoxyacetic acid] | 100% | 0% | 0% | 
CC[C@@]1(OC(=O)COc2ccc(C(=O)O[C@H]3c4cc5c(cc4[C@@H](c4cc(OC)c(OC)c(OC)c4)C4C(=O)OCC43)OCO5)cc2)C(=O)OCc2c1cc1n(c2=O)Cc2cc3ccccc3nc2-1 (stereo partly shown) [Compound 000801, Podophyllotoxin-4-O-ester of camptothecin-20-O-ester of 4-carboxylicphenoxyacetic acid] | 0% | 0% | 0% | 99.83%
COc1cc([C@@H]2c3cc4c(cc3[C@H](OC(=O)COc3ccc(F)cc3)[C@H]3COC(=O)[C@H]23)OCO4)cc(OC)c1OC [Compound 000615, Podophyllotoxin-4-O-ester of 4-fluorophenoxyacetic acid] | 100% | 0% | 0% | 
COc1cc(C2c3cc4c(cc3C(OC(=O)c3ccc([N+](=O)[O-])o3)C3COC(=O)C23)OCO4)cc(OC)c1OC (stereo not shown) [Compound 000202, Podophyllotoxin-4-O-ester of 5-nitro-2-furoic acid] | 81.68% | 0% | 0% | 
COc1cc([C@@H]2c3cc4c(cc3[C@H](OC(=O)c3cc(=O)c5ccccc5o3)[C@H]3COC(=O)[C@H]23)OCO4)cc(OC)c1OC [Compound 000215, Podophyllotoxin-4-O-ester of chromone-2-carboxylic acid] | 92.46% | 0% | 0% | 
COc1cc([C@@H]2c3cc4c(cc3[C@H](OC(=O)C3Cc5c([nH]c6ccccc56)CN3C(=O)OC(C)(C)C)[C@H]3COC(=O)[C@H]23)OCO4)cc(OC)c1OC (stereo partly drawn) [Compound 000301, Podophyllotoxin-4-O-ester of N—BOC-1,2,3,4-Tetrahydro-β-carboline-3-carboxylic acid] |  | 84.08% | 0% | 
COc1cc([C@@H]2c3cc4c(cc3[C@H](OC(=O)COc3ccc(Cl)cc3C)[C@H]3COC(=O)[C@H]23)OCO4)cc(OC)c1OC [Compound 000317, Podophyllotoxin-4-O-ester of 4-chloro-2-methylphenoxyacetic acid] | 99.49% | 0% | 0% | 
COc1cc([C@@H]2c3cc4c(cc3[C@H](OC(=O)c3cccc(NC(=O)CCl)c3)[C@H]3COC(=O)[C@H]23)OCO4)cc(OC)c1OC [Compound 000124, Podophyllotoxin-4-O-ester of 3-chloroacetamidobenzoic acid] | 83.22% | 0% | 0% | 
COc1cc(C2c3cc4c(cc3C(OC(=O)c3cc(-c5ccccc5)nc5ccccc35)C3COC(=O)C23)OCO4)cc(OC)c1OC (stereo not shown) [Compound 000125, Podophyllotoxin-4-O-ester of 2-phenyl-4-quinolinecarboxylic acid] |  | 90.34% | 0% | 
COc1cc(C2c3cc4c(cc3C(OC(=O)CCC(=O)O)C3COC(=O)C23)OCO4)cc(OC)c1OC (stereo not shown) [Compound 000201, Podophyllotoxin-4-O-ester of hemisuccinic acid] |  | 93.24% | 0% | 
COc1cc([C@@H]2c3cc4c(cc3[C@H](OC(=O)COc3ccc5c(C)c(Cl)c(=O)oc5c3)[C@H]3COC(=O)[C@H]23)OCO4)cc(OC)c1OC [Compound 000405, Podophyllotoxin-4-O-ester of 7-(carboxymethoxy)-3-chloro-4-methylcoumarin] | 90.45% | 0% | 0% | 
COc1cc([C@@H]2c3cc4c(cc3[C@H](OC(=O)[C@@H]3CCCN3C(=O)OC(C)(C)C)[C@H]3COC(=O)[C@H]23)OCO4)cc(OC)c1OC [Compound 000203, Podophyllotoxin-4-O-ester of N-(tert-Butoxycarbonyl)-L-proline] |  | 89.76% | 0% | 
COc1cc(C2c3cc4c(cc3C(OC(=O)COc3ccc(I)cc3)C3COC(=O)C23)OCO4)cc(OC)c1OC (stereo not shown) [Compound 000614, Podophyllotoxin-4-O-ester of 4-iodophenoxyacetic acid] | 84.99% | 0% | 0% | 
COc1cc(C2c3cc4c(cc3C(OC(=O)c3ccc5c(c3)C(=O)c3ccccc3C5=O)C3COC(=O)C23)OCO4)cc(OC)c1OC (stereo not shown) [Compound 000121, Podophyllotoxin-4-O-ester of anthraquinone-2-carboxylic acid] |  | 94.03% | 0% | 
COc1cc([C@@H]2c3cc4c(cc3[C@H](OC(=O)c3cc(C(=O)O[C@H]5c6cc7c(cc6[C@@H](c6cc(OC)c(OC)c(OC)c6)[C@H]6C(=O)OC[C@@H]65)OCO7)cc([N+](=O)[O-])c3)[C@H]3COC(=O)[C@H]23)OCO4)cc(OC)c1OC [Compound 000331, Bis(Podophyllotoxin-4-O-ester) of 5-nitroisophthalic acid] |  | 62.56% | 0% | 
COc1cc(C2c3cc4c(cc3C(OC(=O)C(NC(=O)OC(C)(C)C)C(C)c3ccccc3)C3COC(=O)C23)OCO4)cc(OC)c1OC [Compound 000307, Podophyllotoxin-4-O-ester of N—BOC-erythro-D-β-Methylphenylalanine] |  | 93.49% | 0% | 
COc1cc(C2c3cc4c(cc3C(OC(=O)COc3ccc(C=O)cc3)C3COC(=O)C23)OCO4)cc(OC)c1OC (stereo not shown) [Compound 000323, Podophyllotoxin-4-O-ester of 4-formylphenoxyacetic acid] | 90.86% | 0% | 0% | 
COc1cc([C@@H]2c3cc4c(cc3[C@H](OC(=O)COc3ccc(Cl)cc3Cl)[C@H]3COC(=O)[C@H]23)OCO4)cc(OC)c1OC [Compound 000324, Podophyllotoxin-4-O-ester of 2,4-dichlorophenoxyacetic acid] | 100% | 0% | 0% | 
COc1cc(C2c3cc4c(cc3C(OC(=O)C3Cc5ccccc5CN3C(=O)OC(C)(C)C)C3COC(=O)C23)OCO4)cc(OC)c1OC (stereo not shown) [Compound 000302, Podophyllotoxin-4-O-ester of N—BOC-1,2,3,4-Tetrahydroisoquinoline-3-carboxylic acid] |  | 100% | 0% | 
